Test results as given in US20240216369A1, “THE USE OF A SPLICING MODULATOR FOR A TREATMENT SLOWING PROGRESSION OF HUNTINGTON'S DISEASE” (Novartis AG, priority 2019, published 2024).
Entries after “also recorded” stand apart in the source; their conditions may differ.

Test system: HTT transcript
Assay: Single oral dose in BacHD mice: HTT transcripts in brain and blood (qPCR)
Type: in vivo
Protocol: Twenty-eight BacHD mice (FVB/N-Tg(HTT*97Q)|Xwy/J transgenic mice—Jackson Laboratories) were used for the experiment. Animal protocols were approved by the Children's Hospital of Philadelphia Institutional Animal Care and use Committee. Mice were housed in a temperature-controlled environment on a 12-h light/dark cycle. Food and water were provided ad libitum.
A single dose of branaplam or vehicle solution was administered by oral gavage. Mice were divided in seven groups (n=4 mice/group) and treated with branaplam (10 mg/kg—2 groups) and 50 mg/kg—3 groups), or vehicle (2 groups) as control. Mice were firmly restrained by grasping the loose skin to immobilize the head, maintained in a vertical position and a 22- to 26-gauge gavage needle was placed in the side of the mouth. The needle was guided following the roof of the mouth into the esophagus and allowed to gently enter in the stomach. The amount of branaplam or vehicle administrated to each mouse was based on the weight recorded before treatment.
At 8 h, 24 h (vehicle and branaplam 10 mg/kg & 50 mg/kg), and 48 h (branaplam 50 mg/kg) after oral gavage, blood and tissue samples were obtained for PK and PD analysis. Mice were anesthetized with isoflurane and blood was obtained via submandibular vein bleeds and collected for RNA extraction (PD analysis) using RNAprotect Animal Blood Tubes, and plasma (PK analysis) using K2EDTA coated tubes. Cells were removed from plasma by centrifugation for 10 min at 2000×g at 4° C., and plasma samples were stored at −80° C. Following blood collection, mice were anesthetized with a lethal dose of ketamine/xylazine ([…] of a 10 mg:1 mg), and perfused with 18 ml of 0.9% cold saline mixed with 2 ml of RNAlater (Ambion) solution for tissue collection. Liver, skeletal muscle, cerebrum, and cerebellum samples were flash frozen in liquid nitrogen and stored at −80° C.
In experiments, as herein described, the branaplam dose is provided as a solution of branaplam monohydrochloride salt (10 mg/mL suspension) in methyl cellulose, medium viscosity 400 cP for a 1% solution), Tween 80 (1% v/v), purified water suspension formulation.
Total RNA from cerebrum and cerebellum was extracted using RNeasy Plus kit (Qiagen) after homogenized in Precellys at 6000 rpm for 40 sec. RNA from blood was extracted using PAXgene blood RNA kit (Qiagen) according to manufacturer protocol. The RNA was quantified by Nanodrop 2000 (Thermo Scientific). cDNAs were synthesized from 140-400 ng RNA using Maxima First strand cDNA synthesis kit using a mix of oligo dT and random hexamers (Thermo Scientific) in 20 uL reaction at 25° C. for 10 min, 50° C. for 15 min then 85° C. for 5 min. Quantitative PCR was performed using Taqman Fast Advanced master mix (Thermo Scientific) in 20 uL with 4 uL of cDNA reaction and primers specific for each genes. The PCR steps were as follows: 95° C. for 20 sec then 40 cycles of 95° C. for 1 sec, 55° C. for 20 sec. […] Relative quantification of gene expression was performed using 2^−ΔΔCT method. Fold changes in the mRNA expression level was calculated following normalization to mouse glucuronidase beta (Gusb) as an endogenous reference.

[1] = single oral dose 10 or 50 mg/kg, listed as branaplam

## CC1(C)CC(Oc2ccc(-c3ccc(-c4cn[nH]c4)cc3O)nn2)CC(C)(C)N1 [Compound 18, 5-(1H-pyrazol-4-yl)-2-(6-((2,2,6,6-tetramethylpiperidin-4-yl)oxy)pyridazin-3-yl)phenol]
Single oral dose 50 mg/kg, 48 h after dosing
  novel-exon-containing HTT transcript levels in brain: trend towards return to vehicle levels
Single oral dose 10 or 50 mg/kg, 8 and 24 h after dosing, listed as branaplam
  novel-exon-containing HTT transcript levels in brain: elevates; also recorded: dose dependent increase
Single oral dose 10 or 50 mg/kg, 8 h and 24 h, listed as branaplam
  total HTT transcript levels in brain: lowers; also recorded: lowering trend at 8 h; also recorded: greater degree of lowering at the 50 mg/kg level, 24 hours post-dosing
[1]
  novel-exon-containing HTT transcript levels in blood: elevates; also recorded: robust modulation
  total HTT transcript levels in blood: lowers; also recorded: lowering
